Measurements taken from PubChem BioAssay AID330 (DTP/NCI, 2004).
Toxic doses and inconclusive results are not listed. Rule for the calls: active = survival T/C of 150% or more; inactive = T/C below 125% in these data.

System: P388 leukemia ip, CD2F1 mice, survival T/C
Assay: NCI In Vivo Anticancer Drug Screen. Data for tumor model P388 Leukemia (intraperitoneal) in CD2F1 (CDF1) mice
Conditions: endpoint: median survival time, higher = longer survival
Method in brief: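 Mice carrying the transplanted tumor received test compound or vehicle. Survival was recorded in each group, and the value is the treated-group measurement divided by that of the vehicle-treated control group.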

[1] = dose: 100.0 mg/kg/injection, schedule: Q04DX002 (ip), vehicle: saline with Tween-80
[2] = dose: 200.0 mg/kg/injection, schedule: Q04DX002 (ip), vehicle: saline with Tween-80
[3] = dose: 50.0 mg/kg/injection, schedule: Q01DX009 (ip), vehicle: saline with Tween-80
[4] = dose: 100.0 mg/kg/injection, schedule: Q01DX009 (ip), vehicle: saline with Tween-80
[5] = dose: 100.0 mg/kg/injection, schedule: Q04DX003 (ip), vehicle: saline with Tween-80
[6] = dose: 50.0 mg/kg/injection, schedule: Q01DX009 (ip), vehicle: Klucel (hydroxypropylcellulose) (HPC)
[7] = dose: 100.0 mg/kg/injection, schedule: Q01DX009 (ip), vehicle: Klucel (hydroxypropylcellulose) (HPC)
[8] = dose: 200.0 mg/kg/injection, schedule: Q01DX009 (ip), vehicle: Klucel (hydroxypropylcellulose) (HPC)

Measured: T/C

Cc1csc(NC(=S)N(C)C)n1
inactive: [1] 103 % of control | [2] 101 % of control | dose: 400.0 mg/kg/injection, schedule: Q04DX002 (ip), vehicle: saline with Tween-80 101 % of control

CCn1c2ccccc2c2ccc(N=Nc3ccccc3)cc21
inactive: dose: 100.0 mg/kg/injection, schedule: Q04DX003 (ip), vehicle: Klucel (hydroxypropylcellulose) (HPC) 100 % of control | dose: 200.0 mg/kg/injection, schedule: Q04DX003 (ip), vehicle: Klucel (hydroxypropylcellulose) (HPC) 100 % of control | dose: 400.0 mg/kg/injection, schedule: Q04DX003 (ip), vehicle: Klucel (hydroxypropylcellulose) (HPC) 105 % of control

COC(=O)c1noc2c1CSc1ccccc1-2
inactive: [1] 104 % of control | [2] 99 % of control

O=C1NC(=O)C2(CCCc3ccc([N+](=O)[O-])cc32)N1 (centres undefined)
inactive: [3] 99 % of control | [4] 99 % of control | dose: 200.0 mg/kg/injection, schedule: Q01DX009 (ip), vehicle: saline with Tween-80 97 % of control

COc1cc2c(cc1OC)C(CSC)Cc1cc(OC)c(OC)cc1N(C)CCC2 (centres undefined)
inactive: [5] 102 % of control | dose: 200.0 mg/kg/injection, schedule: Q04DX003 (ip), vehicle: saline with Tween-80 93 % of control | dose: 400.0 mg/kg/injection, schedule: Q04DX003 (ip), vehicle: saline with Tween-80 93 % of control

CCN1c2ccccc2S(=O)(=O)n2c(COc3ccccc3)nnc21
inactive: dose: 25.0 mg/kg/injection, schedule: Q01DX001 (ip), vehicle: saline with Tween-80 95 % of control | dose: 50.0 mg/kg/injection, schedule: Q01DX001 (ip), vehicle: saline with Tween-80 95 % of control | dose: 100.0 mg/kg/injection, schedule: Q01DX001 (ip), vehicle: saline with Tween-80 87 % of control

O=C(O)c1cc(=O)c2c(OCC(O)COc3cccc4oc(C(=O)O)cc(=O)c34)cccc2o1.[Cu+2]
inactive: dose: 12.5 mg/kg/injection, schedule: Q04DX002 (ip), vehicle: Klucel (hydroxypropylcellulose) (HPC) 99 % of control | dose: 25.0 mg/kg/injection, schedule: Q04DX002 (ip), vehicle: Klucel (hydroxypropylcellulose) (HPC) 96 % of control | dose: 50.0 mg/kg/injection, schedule: Q04DX002 (ip), vehicle: Klucel (hydroxypropylcellulose) (HPC) 95 % of control

CC(=O)OC1=CC(=O)N(C(=O)c2ccccc2)C1
inactive: [6] 105 % of control | [7] 116 % of control | [8] 113 % of control

O=S(=O)(OC1CCC2CCC1O2)c1ccc(Br)cc1 (centres undefined)
inactive: dose: 50.0 mg/kg/injection, schedule: Q01DX009 (ip), vehicle: saline 86 % of control | dose: 100.0 mg/kg/injection, schedule: Q01DX009 (ip), vehicle: saline 100 % of control | dose: 200.0 mg/kg/injection, schedule: Q01DX009 (ip), vehicle: saline 100 % of control

O=c1ccc(=O)n(CCc2ccccn2)[nH]1
inactive: [6] 112 % of control | [7] 109 % of control | [8] 108 % of control | dose: 400.0 mg/kg/injection, schedule: Q01DX009 (ip), vehicle: Klucel (hydroxypropylcellulose) (HPC) 106 % of control

C=C1CC2CCC1C2 (centres undefined)
inactive: dose: 25.0 mg/kg/injection, schedule: Q01DX009 (ip), vehicle: saline with Tween-80 100 % of control | dose: 25.0 mg/kg/injection, schedule: Q04DX003 (ip), vehicle: saline with Tween-80 104 % of control | [3] 100 % of control | dose: 50.0 mg/kg/injection, schedule: Q04DX003 (ip), vehicle: saline with Tween-80 104 % of control | [4] 100 % of control | [5] 100 % of control

CN(C)c1ccc(C=C2C(=O)OC(C)(C)OC2=O)cc1
inactive: dose: 50.0 mg/kg/injection, schedule: Q01DX005 (ip), vehicle: Klucel (hydroxypropylcellulose) (HPC) 114 % of control | dose: 100.0 mg/kg/injection, schedule: Q01DX005 (ip), vehicle: Klucel (hydroxypropylcellulose) (HPC) 105 % of control | dose: 200.0 mg/kg/injection, schedule: Q01DX005 (ip), vehicle: Klucel (hydroxypropylcellulose) (HPC) 114 % of control
